Measured values reported in US20260232752A1, “COMBINATION THERAPY METHODS, COMPOSITIONS AND KITS” (Accure Therapeutics, S.L., priority 2019, published 2026).
Counter-ions that a name gives are not always drawn.

Experiments:
[1] = tested on: human neuroblastoma cell line SH-SY5Y; experiment: Neuroprotection against H2O2 oxidative stress, MTT assay; assay type: cell-based; conditions: 1 hour preincubation at 0.03-40 μM, then H2O2 15 μM 30 minutes
Protocol: The objective of the study was to test the possible synergistic effect of the BN201-monomethylfumarate salt in a neuroprotective assay. Thus, BN201-monomethylfumarate salt obtained as indicated in example 5, was tested for its ability to protect the human neuroblastoma cell line SH-SY5Y against death induced by oxidative stress (i.e., hydrogen peroxide (H202)) using an MTT (3-(4,5-dimethylthiazol-2-yl)-2,5-diphenyltetrazolium bromide) cell proliferation assay.
SH-SY5Y cells were cultivated in 50% Eagle's minimum essential medium (EMEM), 50% Ham's F12 Nutrient Mixture, 10% fetal bovine serum (FBS), 2 mM L-Glu, and 1% penicillin/streptomycin. All of the cell cultures were maintained in a humidified incubator at 5% CO2 and at 37° C. SH-SY5Y cells were preincubated for 1 hour with BN201 alone, monomethyl fumarate alone, or BN201-monomethylfumarate salt at various concentrations (n=5; concentrations: 0.03 μM, 0.1 μM, 0.3 μM, 0.5 μM, 1 μM, 3 μM, 5 μM, 10 μM, 20 μM, 40 μM) and then H2O2 (15 μM) was added to induce stress. Preincubation with sodium pyruvate (10 mM) was used as a positive control. After 30 minutes of H2O2 incubation, the medium was changed and thiazolyl blue tetrazolium bromide (MTT; Sigma Aldrich; stock concentration 10 mg/ml) was added to each well at the final concentration of 0.5 mg/ml. After 2 hours of MTT incubation the cell medium was removed, and cells were resuspended in pure dimethyl sulfoxide (DMSO). Cell viability was determined by reading the absorbance at 570 nm. Each experiment was performed in quintuplicate.

[2] = tested on: rat model of experimental autoimmune encephalomyelitis (EAE); conditions: cited from earlier work
[3] = tested on: non-obese diabetic mouse model of relapsing-remitting EAE; conditions: cited from earlier work
[4] = tested on: EAE in C57BL6 mice immunized with MOG35-55; experiment: Example 3: BN201 and DMF combination, progression of chronic EAE; assay type: in vivo, mouse; conditions: DMF 10 mg/kg oral alone (suboptimal), once a day six days per week from day 15
Protocol: Effect in the animal model of MS (i.e., EAE in C57BL6 mice immunized with MOG35-55), similar to Example 2.
Starting on day 15, mice were administered: • dimethyl fumarate (DMF) (group A, 10 mice), • BN201 (group B, 10 mice) • a combination thereof (group C, 10 mice) once a day for six days per week at suboptimal dosages (10 mg/kg for DMF, 25 mg/kg for BN201).
DMF was administered orally with a rigid cannula in a saline vehicle at a volume of 10 mL/kg, while BN201 was administered via i.p. injection in a saline vehicle at a volume of 5 mL/kg. Control mice received vehicle only via both oral and i.p. injection (group D, 10 mice) or nothing at all (group E, 2 mice).
The objective of the study was to evaluate the efficacy and safety of combination therapy with suboptimal doses of BN201 (25 mg/kg) and dimethyl-fumarate (DMF) (10 mg/kg) in the progression of chronic EAE in mice.
During a one week acclimation period starting on day −7, mice were distributed based on body weight stratification into different experimental groups. On day 0, mice were immunized subcutaneously in both hind pads with 150 μg of MOG peptide 35-55 (Spikem, Firenze) emulsified with 50 μg of Mycobacterium tuberculosis (H37Ra strain; Difco, Detroit, MI) in incomplete Freund's adjuvant (IFA). […]

[5] = tested on: experimental autoimmune encephalomyelitis (EAE) mouse model; experiment: Study EAE-C05: clinical score in EAE mouse model with active comparators; assay type: in vivo; conditions: 2 mg/kg daily, after 5 days of treatment
Protocol: A second experiment (Study EAE-C05) was then performed using the same mouse model.
Study EAE-C05: In addition to two dose levels of BN201 and a placebo-treated group (pathological control group), the study design introduced two active comparators, dimethyl fumarate (DMF) and fingolimod (FTY720), and a sham group (group in which animals were manipulated as the pathological group but without MOG injection). All groups were administered daily. • sham control non-diseased placebo-treated animals (healthy control group); • EAE-affected placebo-treated animals (pathological control group); • EAE-affected animals treated orally with 15 mg/kg of DMF; • EAE-affected animals treated with 2 mg/kg of FTY720; • EAE-affected animals treated with BN201 at 50 or 100 mg/kg.
(§1) Clinical scores were assigned to assess disease severity using the following scale: 0=normal; 0.5=Partial tail paralysis; 1=Complete tail paralysis; 1.5=Tail paralysis and loss of righting reflex; 2=Partial hind limb paralysis/paralysis of one limb; 2.5=One limb paralysis and partial loss of activity of one other limb; 3=Bilateral hind limb paralysis; 4=Moribund; 5=exitus.
Therapeutic treatment was initiated on day 12 or 13, once each mouse started showing complete tail paralysis (Score 1).

[6] = tested on: experimental autoimmune encephalomyelitis (EAE) mouse model; experiment: Study EAE-C06: dose response of BN201, clinical score in EAE mouse model; assay type: in vivo; conditions: 2 mg/kg daily, almost all days of observation/treatment (Day 2 to day 30)
Protocol: A third experiment (Study EAE-C06) to test dose response of BN201 was then performed using the same mouse model.
Study EAE-C06: five different concentrations of BN201: 12.5 mg/kg, 25 mg/kg, 50 mg/kg, 100 mg/kg, and 150 mg/kg. Also sham, pathological control and FTY720 (2 mg/kg) comparator groups were included in the experiment. All groups were administered daily.
as §1
Therapeutic treatment was initiated on day 12 once each mouse started showing complete tail paralysis (Score 1).
Data are depicted in FIG. 1 (C), wherein the clinical score for each of the tested groups is plotted per day after disease onset.

[7] = tested on: EAE in C57BL6 mice immunized with MOG35-55; experiment: Example 4: BN201 and STAT3 inhibitor combination, chronic phase of EAE; assay type: in vivo, mouse; conditions: S31-201 5 mg/kg i.p. alone (optimal), from day 34 to day 54
Protocol: Effect during the chronic phase of the disease in the animal model of Multiple Sclerosis (i.e., EAE in C57BL6 mice immunized with MOG35-55)
Efficacy and safety of combination therapy with optimal doses of BN201 (50 mg/kg) and S31-201 (5 mg/kg) in the progression of chronic EAE in mice.
Starting the chronic phase of the disease (by day 34) mice were administered: • the STAT3 inhibitor S31-201 (group A, 7 mice), • BN201 (group B, 6 mice), or • a combination thereof (group C, 6 mice) once a day for six days per week at optimal dosages (5 mg/kg for S31-201, 50 mg/kg for BN201).
S31-201 and BN201 were administered via i.p. injection in a saline vehicle at a volume of 5 mL/kg. Control mice received vehicle only via both oral and i.p. injection (group D, 6 mice) or nothing at all (group E, 2 mice). Mice were treated from day 34 (chronic EAE stage) until the end of the experiment on day 54.
The combination of BN201 and the STAT3-inhibitor S31-201 was evaluated for its effect during the chronic phase of the disease in the animal model of Multiple Sclerosis (i.e., EAE in C57BL6 mice immunized with MOG35-55). The objective of the study was to evaluate the efficacy and safety of combination therapy with optimal doses of BN201 (50 mg/kg) and 531-201 (5 mg/kg) in the progression of chronic EAE in mice. […]

For `CC(C)CN(CC(=O)N(CCCN1CCCC1=O)CC(N)=O)C(=O)CNCCc1ccccc1F` [BN201-monomethylfumarate salt], the “cell viability as a percentage compared to the control (protection from death induced by oxidative stress)” value (from here on “cell viability as a percentage”) [1] was “increased” and the “cell viability as a percentage” value ([1]; listed as BN201-monomethylfumarate) was “significantly higher level of neuroprotection than either compound alone”.
In the case of `CCCc1ccc(COc2ccc3c(c2)CCC(CN2CC(C(=O)O)C2)=C3C)c(OC)c1` [Ceralifimod, 1-[[6-[(2-methoxy-4-propylphenyl)methoxy]-1-methyl-3,4-dihydronaphthalen-2-yl]methyl]azetidine-3-carboxylic acid], the disease onset [2] is given as “delays disease onset”, the “lymphocyte infiltration of the spinal cord” value [2] is given as “inhibits lymphocyte infiltration of the spinal cord” and the disease relapse [3] is given as “prevents disease relapse”.
With `COC(=O)/C=C/C(=O)OC` [DMF, Dimethyl fumarate, reference compound] the “course of EAE (clinical score) versus placebo” value [4] was “suffered EAE similar to those mice treated with placebo”.
For `CCCCCCCCc1ccc(CCC(N)(CO)CO)cc1` [FTY720, Fingolimod, reference compound], the “clinical score compared to pathological control group” value [5] was “significantly lower” and the clinical score [6] was “significant amelioration of the clinical score”.
With `Cc1ccc(S(=O)(=O)OCC(=O)Nc2ccc(C(=O)O)c(O)c2)cc1` [S31-201, 2-Hydroxy-4-[[[[(4-methylphenyl)sulfonyl]oxy]acetyl]amino]-benzoic acid, reference compound] the “course of EAE in chronic phase (clinical score)” value [7] was “not efficacious”.
With `COC(=O)/C=C/C(=O)O` [fumarate, fumaric acid monomethyl ester, reference compound] the “cell viability as a percentage” value [1] was “partially rescued neurons from death induced by oxidative stress”.
